Laboratory results from ChEMBL document CHEMBL5465560, “Selectivity Literature for EUbOPEN Chemogenomic Library” (2024).

Key:
[1] = target: Histone-lysine N-methyltransferase, H3 lysine-79 specific (Homo sapiens, UniProt Q8TEK3); assay: Selectivity interaction (Methyltransferase screen (Scintillation proximity assays)) EUB0000255b DOT1L
[2] = target: Serine/threonine-protein kinase Nek6 (Homo sapiens) (UniProt Q9HC98); assay: Selectivity interaction (Kinase panel (literature)) EUB0001199aCl NEK6; details: at 1 µM
[3] = target: T1, Gamma-aminobutyric acid receptor subunit alpha-1 (Homo sapiens) (UniProt P14867); assay: Selectivity interaction (GPCR panel (PDSP screen)) EUB0001079a GABRA1; details: at 10 µM
T1 sequence (whole entry): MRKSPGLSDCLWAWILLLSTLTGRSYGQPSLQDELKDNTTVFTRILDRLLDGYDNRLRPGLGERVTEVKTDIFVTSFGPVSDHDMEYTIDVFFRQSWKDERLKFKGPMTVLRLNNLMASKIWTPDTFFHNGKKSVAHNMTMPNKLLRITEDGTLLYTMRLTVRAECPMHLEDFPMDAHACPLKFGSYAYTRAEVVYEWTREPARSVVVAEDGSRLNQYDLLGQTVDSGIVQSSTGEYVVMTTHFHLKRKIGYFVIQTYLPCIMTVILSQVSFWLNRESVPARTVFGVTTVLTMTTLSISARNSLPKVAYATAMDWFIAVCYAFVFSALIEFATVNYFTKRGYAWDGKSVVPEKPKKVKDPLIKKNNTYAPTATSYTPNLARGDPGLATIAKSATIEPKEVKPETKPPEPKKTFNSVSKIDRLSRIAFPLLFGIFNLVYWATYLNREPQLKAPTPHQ

[4] = target: Calcium/calmodulin-dependent protein kinase type 1B (Homo sapiens) (UniProt Q6P2M8); assay: Selectivity interaction (KinomeScan (DiscoverX)) EUB0001079a PNCK; details: at 1 µM
[5] = target: Serine/threonine-protein kinase 26 (Homo sapiens, UniProt Q9P289); assay: Selectivity interaction (KinomeScan (DiscoverX)) EUB0000045b STK26
[6] = target: T2, Tyrosine-protein kinase receptor TYRO3 (Homo sapiens) (UniProt Q06418); assay: Selectivity interaction (KinomeScan (DiscoverX)) EUB0000595a TYRO3; details: at 10 µM
T2 sequence (whole entry): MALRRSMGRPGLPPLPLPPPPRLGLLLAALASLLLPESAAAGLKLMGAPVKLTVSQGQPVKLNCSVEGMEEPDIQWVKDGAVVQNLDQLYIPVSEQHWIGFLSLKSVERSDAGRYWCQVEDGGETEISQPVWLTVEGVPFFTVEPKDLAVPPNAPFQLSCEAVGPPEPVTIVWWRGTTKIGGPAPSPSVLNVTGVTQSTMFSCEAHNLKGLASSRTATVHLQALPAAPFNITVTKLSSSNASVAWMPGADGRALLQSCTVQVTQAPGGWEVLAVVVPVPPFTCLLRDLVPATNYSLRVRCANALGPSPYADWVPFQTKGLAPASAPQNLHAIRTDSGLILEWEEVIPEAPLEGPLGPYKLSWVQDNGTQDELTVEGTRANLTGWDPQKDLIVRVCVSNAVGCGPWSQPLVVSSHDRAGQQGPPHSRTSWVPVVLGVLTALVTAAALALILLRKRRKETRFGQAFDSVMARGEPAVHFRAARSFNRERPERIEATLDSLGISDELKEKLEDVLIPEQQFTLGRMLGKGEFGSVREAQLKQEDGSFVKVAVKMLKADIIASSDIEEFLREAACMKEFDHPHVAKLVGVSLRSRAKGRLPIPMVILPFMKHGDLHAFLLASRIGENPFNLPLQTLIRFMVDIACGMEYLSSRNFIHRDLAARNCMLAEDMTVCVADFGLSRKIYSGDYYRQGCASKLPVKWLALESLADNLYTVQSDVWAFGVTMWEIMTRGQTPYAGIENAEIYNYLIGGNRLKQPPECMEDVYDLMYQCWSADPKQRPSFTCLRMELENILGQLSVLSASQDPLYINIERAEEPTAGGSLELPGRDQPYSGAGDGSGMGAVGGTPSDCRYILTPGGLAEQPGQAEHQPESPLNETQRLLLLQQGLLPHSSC

[7] = target: Ribosomal protein S6 kinase alpha-4 (Homo sapiens) (UniProt O75676); details: at 10 µM
[8] = target: BDNF/NT-3 growth factors receptor (Homo sapiens) (UniProt Q16620); assay: Selectivity interaction (Kinase panel (Invitrogen)) EUB0000639a NTRK2; details: at 200 nM
[9] = target: T3, Serine/threonine-protein kinase Nek2 (Homo sapiens) (UniProt P51955); assay: Selectivity interaction (KinomeScan (DiscoverX)) EUB0000695a NEK2; details: at 100 nM
T3 sequence (whole entry): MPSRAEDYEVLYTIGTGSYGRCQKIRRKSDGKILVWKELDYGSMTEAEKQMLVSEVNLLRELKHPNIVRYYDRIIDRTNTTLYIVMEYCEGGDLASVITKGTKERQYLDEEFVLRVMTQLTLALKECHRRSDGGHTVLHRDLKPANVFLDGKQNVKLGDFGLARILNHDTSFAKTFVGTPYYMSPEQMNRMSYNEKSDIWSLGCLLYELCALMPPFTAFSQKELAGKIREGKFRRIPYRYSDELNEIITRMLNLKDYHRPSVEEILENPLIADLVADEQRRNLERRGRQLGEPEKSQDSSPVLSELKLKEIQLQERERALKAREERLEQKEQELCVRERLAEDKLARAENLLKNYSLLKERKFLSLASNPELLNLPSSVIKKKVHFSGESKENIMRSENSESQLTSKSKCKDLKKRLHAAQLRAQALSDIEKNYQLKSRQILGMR

Chain of Serine/threonine-protein kinase 26 (Q9P289 2-416 limits assumed): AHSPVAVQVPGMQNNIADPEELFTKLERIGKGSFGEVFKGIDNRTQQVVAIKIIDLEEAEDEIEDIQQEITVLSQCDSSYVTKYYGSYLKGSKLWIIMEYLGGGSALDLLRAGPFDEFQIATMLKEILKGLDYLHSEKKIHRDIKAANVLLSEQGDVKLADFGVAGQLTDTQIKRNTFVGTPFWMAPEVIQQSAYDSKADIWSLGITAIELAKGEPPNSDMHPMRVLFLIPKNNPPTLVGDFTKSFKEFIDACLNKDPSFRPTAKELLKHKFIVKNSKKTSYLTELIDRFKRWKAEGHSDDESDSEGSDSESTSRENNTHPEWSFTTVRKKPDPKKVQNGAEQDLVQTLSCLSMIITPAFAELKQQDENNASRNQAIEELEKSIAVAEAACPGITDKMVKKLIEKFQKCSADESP
Chain of Histone-lysine N-methyltransferase, H3 lysine-79 specific (Q8TEK3 whole entry, looked up): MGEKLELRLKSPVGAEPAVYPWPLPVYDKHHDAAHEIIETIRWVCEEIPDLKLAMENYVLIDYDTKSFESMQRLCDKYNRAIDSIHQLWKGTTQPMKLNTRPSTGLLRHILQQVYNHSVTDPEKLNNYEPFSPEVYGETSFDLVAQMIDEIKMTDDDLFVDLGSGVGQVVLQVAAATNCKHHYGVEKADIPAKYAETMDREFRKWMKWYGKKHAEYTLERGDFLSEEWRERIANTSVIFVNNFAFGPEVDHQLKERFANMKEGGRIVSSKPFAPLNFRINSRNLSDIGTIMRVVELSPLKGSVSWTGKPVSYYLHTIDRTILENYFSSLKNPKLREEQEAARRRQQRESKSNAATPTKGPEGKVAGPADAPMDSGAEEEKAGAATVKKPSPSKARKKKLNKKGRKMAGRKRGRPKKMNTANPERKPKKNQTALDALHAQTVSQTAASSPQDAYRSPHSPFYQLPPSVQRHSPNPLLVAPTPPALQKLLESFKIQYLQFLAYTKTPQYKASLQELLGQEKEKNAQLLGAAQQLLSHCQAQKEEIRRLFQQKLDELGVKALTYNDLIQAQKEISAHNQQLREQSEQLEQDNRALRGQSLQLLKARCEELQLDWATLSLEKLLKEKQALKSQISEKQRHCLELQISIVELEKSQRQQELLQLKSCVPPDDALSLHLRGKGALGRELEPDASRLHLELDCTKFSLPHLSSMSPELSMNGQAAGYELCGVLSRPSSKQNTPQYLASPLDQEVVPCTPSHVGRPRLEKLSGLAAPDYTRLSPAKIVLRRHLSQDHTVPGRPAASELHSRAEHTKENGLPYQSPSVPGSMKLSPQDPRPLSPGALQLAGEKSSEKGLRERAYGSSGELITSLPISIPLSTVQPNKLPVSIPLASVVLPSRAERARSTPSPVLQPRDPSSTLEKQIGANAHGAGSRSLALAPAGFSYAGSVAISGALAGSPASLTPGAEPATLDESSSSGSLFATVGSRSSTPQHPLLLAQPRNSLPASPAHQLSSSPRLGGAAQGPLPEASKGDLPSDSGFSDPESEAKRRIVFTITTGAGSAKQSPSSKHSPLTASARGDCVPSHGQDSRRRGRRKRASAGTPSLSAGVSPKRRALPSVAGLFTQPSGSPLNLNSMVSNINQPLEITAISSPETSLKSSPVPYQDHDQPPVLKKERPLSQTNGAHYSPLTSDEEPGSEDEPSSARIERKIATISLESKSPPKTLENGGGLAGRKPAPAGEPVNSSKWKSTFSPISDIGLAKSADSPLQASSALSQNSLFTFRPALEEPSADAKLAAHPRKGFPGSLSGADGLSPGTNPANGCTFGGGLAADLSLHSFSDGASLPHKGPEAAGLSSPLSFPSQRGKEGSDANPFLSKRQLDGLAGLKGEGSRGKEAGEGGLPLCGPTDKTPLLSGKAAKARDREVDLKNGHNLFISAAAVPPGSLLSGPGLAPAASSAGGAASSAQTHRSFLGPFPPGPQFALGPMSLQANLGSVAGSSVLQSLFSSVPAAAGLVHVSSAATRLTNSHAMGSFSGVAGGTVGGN
Chain of Serine/threonine-protein kinase Nek6 (Homo sapiens) (Q9HC98 whole entry): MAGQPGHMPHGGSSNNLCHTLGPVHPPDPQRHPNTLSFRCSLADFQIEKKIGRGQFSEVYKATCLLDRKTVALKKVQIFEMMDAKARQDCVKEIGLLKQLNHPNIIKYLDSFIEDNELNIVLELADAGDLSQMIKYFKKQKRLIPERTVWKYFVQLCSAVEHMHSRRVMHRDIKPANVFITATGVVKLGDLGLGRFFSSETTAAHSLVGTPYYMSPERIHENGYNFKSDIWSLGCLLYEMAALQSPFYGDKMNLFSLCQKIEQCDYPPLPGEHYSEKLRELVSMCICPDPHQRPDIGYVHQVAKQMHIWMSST
Chain of Ribosomal protein S6 kinase alpha-4 (Homo sapiens) (O75676 whole entry, looked up): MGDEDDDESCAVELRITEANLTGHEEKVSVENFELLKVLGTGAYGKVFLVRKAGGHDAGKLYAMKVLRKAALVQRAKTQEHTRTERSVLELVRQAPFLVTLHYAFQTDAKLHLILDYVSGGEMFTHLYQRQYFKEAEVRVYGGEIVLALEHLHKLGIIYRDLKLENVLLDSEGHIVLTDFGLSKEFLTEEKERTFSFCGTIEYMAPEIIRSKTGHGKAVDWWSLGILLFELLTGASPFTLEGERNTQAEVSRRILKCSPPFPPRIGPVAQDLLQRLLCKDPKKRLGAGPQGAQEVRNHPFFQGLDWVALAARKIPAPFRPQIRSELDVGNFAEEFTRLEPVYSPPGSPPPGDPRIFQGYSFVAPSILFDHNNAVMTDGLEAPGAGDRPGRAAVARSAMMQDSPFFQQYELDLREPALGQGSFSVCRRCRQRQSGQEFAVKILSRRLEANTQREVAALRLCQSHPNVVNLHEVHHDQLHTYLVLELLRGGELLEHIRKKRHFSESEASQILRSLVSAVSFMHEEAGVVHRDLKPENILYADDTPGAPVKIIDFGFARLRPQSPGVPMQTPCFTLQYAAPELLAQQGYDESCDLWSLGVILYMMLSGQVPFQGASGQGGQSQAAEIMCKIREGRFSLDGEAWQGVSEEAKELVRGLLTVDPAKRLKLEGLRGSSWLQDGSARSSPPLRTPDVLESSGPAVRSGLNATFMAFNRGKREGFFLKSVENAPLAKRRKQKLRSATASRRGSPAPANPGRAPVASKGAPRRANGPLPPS
Chain of BDNF/NT-3 growth factors receptor (Homo sapiens) (Q16620 32-822 limits assumed): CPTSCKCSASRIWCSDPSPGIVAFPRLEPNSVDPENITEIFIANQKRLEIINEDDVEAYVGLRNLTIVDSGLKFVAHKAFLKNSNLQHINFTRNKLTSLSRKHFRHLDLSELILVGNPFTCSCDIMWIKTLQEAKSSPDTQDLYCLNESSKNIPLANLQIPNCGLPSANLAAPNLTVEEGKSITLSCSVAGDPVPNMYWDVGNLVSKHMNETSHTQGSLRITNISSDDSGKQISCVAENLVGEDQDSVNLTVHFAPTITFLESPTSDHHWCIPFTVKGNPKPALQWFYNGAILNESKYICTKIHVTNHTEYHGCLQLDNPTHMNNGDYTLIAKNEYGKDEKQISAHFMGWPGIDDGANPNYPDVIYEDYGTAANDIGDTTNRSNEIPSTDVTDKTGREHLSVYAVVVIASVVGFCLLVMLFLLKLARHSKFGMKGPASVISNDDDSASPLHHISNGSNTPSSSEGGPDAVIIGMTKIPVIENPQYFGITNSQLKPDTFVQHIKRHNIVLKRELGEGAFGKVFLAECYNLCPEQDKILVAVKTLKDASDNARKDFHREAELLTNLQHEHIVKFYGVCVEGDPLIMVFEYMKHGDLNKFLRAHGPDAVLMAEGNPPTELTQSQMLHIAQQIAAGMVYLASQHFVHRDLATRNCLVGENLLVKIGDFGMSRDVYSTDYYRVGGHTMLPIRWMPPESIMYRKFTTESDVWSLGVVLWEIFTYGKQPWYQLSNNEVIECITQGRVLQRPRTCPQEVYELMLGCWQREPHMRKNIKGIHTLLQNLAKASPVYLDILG
Chain of Calcium/calmodulin-dependent protein kinase type 1B (Homo sapiens) (Q6P2M8 whole entry): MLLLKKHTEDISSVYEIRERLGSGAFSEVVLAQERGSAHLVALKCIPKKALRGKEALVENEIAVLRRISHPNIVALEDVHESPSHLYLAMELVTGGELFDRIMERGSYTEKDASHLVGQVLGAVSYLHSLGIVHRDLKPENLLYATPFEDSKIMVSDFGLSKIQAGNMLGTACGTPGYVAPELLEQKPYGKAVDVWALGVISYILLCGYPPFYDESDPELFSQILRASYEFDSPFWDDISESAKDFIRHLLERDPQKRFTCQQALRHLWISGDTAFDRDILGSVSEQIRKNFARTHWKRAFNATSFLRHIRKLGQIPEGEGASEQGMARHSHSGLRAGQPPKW

COCCN1CCC(c2cc(CN(C)C(=O)c3cccc(Oc4ccccc4)c3)ccn2)CC1
% activity ([1]; at 1 µM): > 95%
% activity ([1]; at 10 µM): > 90%

CN1Cc2nccc(-c3cn(C)nc3-c3ccc(F)cc3)c2C1=O
% of inhibition [2]: 5%

Nc1cnc(N2CCc3cc(S(=O)(=O)Nc4c(F)cc(Cl)cc4F)cc(N4CCCC4=O)c32)nc1 [TP-020n]
% of inhibition [3]: 20.5%
% of control [4]: 67%

C=CC(=O)Nc1cc(-n2c(=O)ccc3cnc4ccc(-c5ccc(NS(C)(=O)=O)cc5)cc4c32)ccc1C
% of control ([5]; at 1 µM): 100%
% of control ([5]; at 10 µM): 90%

COCC(=O)NC/C=C/c1ccc2ncnc(Nc3ccc(Oc4ccc(C)nc4)c(C)c3)c2c1 [CP-724714]
% of control [6]: 80%

Cc1cc([C@@H](C)Nc2ccccc2C(=O)O)c2nc(N3CCOCC3)cc(=O)n2c1 [AZD-6482]
% of control [7]: 100%

CC[C@@H]1[C@H](F)C(=O)N[C@@H]1COc1nccc2cc(C(N)=O)c(OC)cc12 [ZIMLOVISERTIB]
% of inhibition [8]: 15.8%

Cc1cc(F)c(C(=O)Nc2cccc(-c3nncn3C(C)C)n2)cc1-n1cnc(C2CC2)c1
% of control [9]: 100%
